The values that follow come from US12134788B2, “Engineered prephenate dehydrogenases and arogenate dehydrogenases and methods of using the same” (Wisconsin Alumni Research Foundation, priority 2017, dated 2024).

Molecules are shown by their SMILES.

For test [1], the target named is Glycine max GmPDH1 variant N222A (Glycine max, UniProt I1MYY4, N222A). Description: ADH and PDH assay: steady-state kinetics and Tyr inhibition, GmPDH1 N222A. Type of test: biochemical, Glycine max (soybean). The settings on record: 0-8 mM L-Tyr. How it is done: (§1) Kinetic parameters of purified recombinant proteins were determined from assays conducted at varying arogenate (19.5 μM-5 mM) and prephenate concentration (23.4 μM-6 mM). Standard assay conditions were 25 mM HEPES pH 7.6, 50 mM KCl and 10% (v/v) ethylene glycol, and 0.5 mM NADP^+ with varied substrate, concentrations. Reactions were initiated by addition of enzyme and incubated at 37° C. monitored every 10-15 seconds at […] using a microplate reader (Tecan Genios). Kinetic parameters were determined by fitting initial velocity data to the Michaelis-Menten equation using the Origin software (OriginLab).
Sequence of Glycine max GmPDH1 variant N222A (I1MYY4 1-271 N222A): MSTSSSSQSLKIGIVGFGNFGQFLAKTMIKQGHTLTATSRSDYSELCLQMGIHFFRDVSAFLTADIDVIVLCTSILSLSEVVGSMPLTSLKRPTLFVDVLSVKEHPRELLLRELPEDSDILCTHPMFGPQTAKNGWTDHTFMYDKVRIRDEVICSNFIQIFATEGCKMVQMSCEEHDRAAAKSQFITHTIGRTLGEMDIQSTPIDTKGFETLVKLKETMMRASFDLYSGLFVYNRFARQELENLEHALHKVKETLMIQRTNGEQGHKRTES
(§2) Arogenate was prepared by enzymatic conversion of prephenate (Sigma-Aldrich) as previously reported^56. For Tyr inhibition assays, Tyr was dissolved in a slightly basic solution (0.025 N NaOH) due to solubility issues, thus the concentration of lysis buffer was increased to 500 mM HEPES final concentration to buffer against the changes by addition of Tyr in the reaction. Reactions containing varying amounts of Tyr (10 μM-8 mM) with 0.5 mM NADP^+ and either 1 mM arogenate or 0.8 mM prephenate were monitored as above.

Test [2] addresses T1, GmncADH (Gm14g05990), soybean (Glycine max) noncanonical arogenate dehydrogenase, wild type (Glycine max, UniProt I1M7P5).
T1 construct: wild type
T1 sequence (I1M7P5 1-266): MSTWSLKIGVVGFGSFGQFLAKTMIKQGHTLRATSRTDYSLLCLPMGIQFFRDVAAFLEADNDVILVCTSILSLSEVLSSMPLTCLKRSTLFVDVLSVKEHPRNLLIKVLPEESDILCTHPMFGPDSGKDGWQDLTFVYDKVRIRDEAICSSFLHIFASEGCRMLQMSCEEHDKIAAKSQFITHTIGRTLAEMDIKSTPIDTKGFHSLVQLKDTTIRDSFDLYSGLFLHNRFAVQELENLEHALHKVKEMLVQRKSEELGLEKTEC
Description: ADH and PDH assay: steady-state kinetics and Tyr inhibition, GmncADH wild type. Type of test: biochemical. How it is done: as §1, §2

The target of test [3] is T2, MtncADH (Mt5g083530), Medicago truncatula noncanonical arogenate dehydrogenase, wild type (Medicago truncatula, UniProt A0A217FAR3).
T2 construct: wild type
T2 sequence (A0A217FAR3 1-266): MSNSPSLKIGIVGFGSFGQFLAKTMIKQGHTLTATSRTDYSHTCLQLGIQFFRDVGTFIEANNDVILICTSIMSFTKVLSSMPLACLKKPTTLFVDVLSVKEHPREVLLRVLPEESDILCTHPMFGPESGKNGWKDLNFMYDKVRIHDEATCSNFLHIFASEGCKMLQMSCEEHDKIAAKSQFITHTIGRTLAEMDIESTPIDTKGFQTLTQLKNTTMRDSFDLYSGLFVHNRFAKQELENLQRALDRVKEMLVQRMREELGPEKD
Description: ADH and PDH assay: steady-state kinetics and Tyr inhibition, MtncADH wild type. The test is classed as biochemical. The settings on record: for IC50: IC50^Tyr, 0.5 mM NADP^+. How it is done:
as §1, §2

In test [4] the target is T3, Medicago truncatula MtPDH variant C220D, SEQ ID NO: 1 (Medicago truncatula, UniProt A0A0A0R205, C220D).
T3 sequence (A0A0A0R205 1-268 C220D): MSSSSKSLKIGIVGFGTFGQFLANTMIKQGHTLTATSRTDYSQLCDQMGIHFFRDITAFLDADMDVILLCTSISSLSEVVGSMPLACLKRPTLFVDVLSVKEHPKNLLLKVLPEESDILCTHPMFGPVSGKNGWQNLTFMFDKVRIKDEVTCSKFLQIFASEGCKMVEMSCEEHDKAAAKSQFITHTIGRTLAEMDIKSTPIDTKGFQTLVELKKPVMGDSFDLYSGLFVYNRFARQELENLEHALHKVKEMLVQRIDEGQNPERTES
The experiment in a line: ADH and PDH assay: steady-state kinetics and Tyr inhibition, MtPDH C220D. Type of test: biochemical. How it is done:
as §1, §2

Test [5] has as its target T4, Solanum lycopersicum SolyncADH variant D224N (Solanum lycopersicum, UniProt K4C5K7, D224N).
T4 construct: D224N by site-directed mutagenesis
The experiment in a line: ADH and PDH assay: steady-state kinetics and Tyr inhibition, SolyncADH D224N. The test is classed as biochemical, Solanum lycopersicum (tomato). The settings on record: versus wild-type; ADH activity, 0-8 mM Tyr. Here is the method: as §1, §2

Test [6] concerns the target Glycine max GmPDH1 variant M219T/N222D (Glycine max, UniProt I1MYY4, M219T/N222D). Description: ADH and PDH assay: steady-state kinetics and Tyr inhibition, GmPDH1 M219T/N222D. The test is classed as biochemical, Glycine max (soybean). The settings on record: IC50^Tyr, 0.5 mM NADP^+. How it is done: as §1, §2

Sequence of Glycine max GmPDH1 variant M219T/N222D (I1MYY4 1-271 M219T/N222D): as the sequence (I1MYY4 1-271 N222A) above, with M219T, A222D counted along it
T4 sequence (K4C5K7 1-272 D224N): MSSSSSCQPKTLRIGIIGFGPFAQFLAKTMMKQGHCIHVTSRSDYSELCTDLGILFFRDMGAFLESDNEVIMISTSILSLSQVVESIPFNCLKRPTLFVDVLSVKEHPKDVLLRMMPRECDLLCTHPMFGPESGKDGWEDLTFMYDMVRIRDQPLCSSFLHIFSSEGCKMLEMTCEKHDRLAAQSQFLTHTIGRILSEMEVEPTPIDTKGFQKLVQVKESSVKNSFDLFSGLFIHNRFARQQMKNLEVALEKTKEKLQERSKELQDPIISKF

As for `N[C@@H](Cc1ccc(O)cc1)C(=O)O` [Tyr, L-Tyrosine], in test [1], the “inhibition by Tyr” value is “not inhibited by Tyr”. Further, the IC50 in test [2] was 15.5 ± 0.8 mM; in test [3] (substrate arogenate (1 mM)) it was 2.2 ± 0.5 mM; in test [3] (substrate prephenate (0.8 mM)), 0.6 ± 0.1 mM; in test [4] it was 8.2 ± 0.9 mM; in test [6] (substrate arogenate (1 mM)) it was 5.9 ± 0.5 mM; in test [6] (substrate prephenate (0.8 mM)), 11.1 ± 1.2 mM. The “IC50 (Tyr), in words” value in test [2] (sensitivity to Tyr) and in test [3] (sensitivity to Tyr) was “in the mM range” in each case. Moreover, the “sensitivity to Tyr inhibition” value in test [5] is recorded as “significantly less sensitive to Tyr inhibition”.

Broadly, the IC50 is the point on the concentration scale where inhibition reaches its midpoint. Read a high IC50 as weaker potency.
